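Interpolation was linear, between the two tested concentrations surrounding the appropriate level; five concentrations were tested over 48 hours in 96-well plates. TGI: concentration producing complete growth inhibition.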
What was measured:
Experiment in all cases: NCI-60 cell line screen, 48 h
SNB-75 CNS = system: SNB-75 CNS
SK-OV-3 ovarian = system: SK-OV-3 ovarian
NCI-H226 lung = system: NCI-H226 lung
M14 melanoma = system: M14 melanoma
OVCAR-4 ovarian = system: OVCAR-4 ovarian
U251 CNS = system: U251 CNS
SR leukemia = system: SR leukemia
T-47D breast = system: T-47D breast
IGROV1 ovarian = system: IGROV1 ovarian
KM12 colon = system: KM12 colon
HOP-62 NSCLC = system: HOP-62 NSCLC
OVCAR-8 ovarian = system: OVCAR-8 ovarian
786-0 renal = system: 786-0 renal
MOLT-4 leukemia = system: MOLT-4 leukemia
RPMI-8226 leukemia = system: RPMI-8226 leukemia
SF-295 CNS = system: SF-295 CNS
HCT-15 colon = system: HCT-15 colon
NCI-H522 lung = system: NCI-H522 lung
EKVX NSCLC = system: EKVX NSCLC
DU-145 prostate = system: DU-145 prostate
NCI-H460 lung = system: NCI-H460 lung
SK-MEL-28 melanoma = system: SK-MEL-28 melanoma
BT-549 breast = system: BT-549 breast
MALME-3M melanoma = system: MALME-3M melanoma
HCT-116 colon = system: HCT-116 colon
SNB-19 CNS = system: SNB-19 CNS
SF-268 CNS = system: SF-268 CNS
CAKI-1 renal = system: CAKI-1 renal
MCF7 breast = system: MCF7 breast
PC-3 prostate = system: PC-3 prostate
MDA-MB-231 breast = system: MDA-MB-231 breast
MDA-N = system: MDA-N
COLO 205 colon = system: COLO 205 colon
A549 NSCLC = system: A549 NSCLC
HT29 colon = system: HT29 colon
CCRF-CEM leukemia = system: CCRF-CEM leukemia
NCI-H23 lung = system: NCI-H23 lung
ACHN renal = system: ACHN renal
RXF 393 renal = system: RXF 393 renal
K-562 leukemia = system: K-562 leukemia
SK-MEL-5 melanoma = system: SK-MEL-5 melanoma
LOX IMVI melanoma = system: LOX IMVI melanoma
HS 578T breast = system: HS 578T breast
MDA-MB-435 = system: MDA-MB-435
HCC-2998 colon = system: HCC-2998 colon
UACC-257 melanoma = system: UACC-257 melanoma
OVCAR-3 ovarian = system: OVCAR-3 ovarian
SN12C renal = system: SN12C renal
OVCAR-5 ovarian = system: OVCAR-5 ovarian
SK-MEL-2 melanoma = system: SK-MEL-2 melanoma
UO-31 renal = system: UO-31 renal
A498 renal = system: A498 renal
UACC-62 melanoma = system: UACC-62 melanoma
HOP-92 NSCLC = system: HOP-92 NSCLC
TK-10 renal = system: TK-10 renal
NCI/ADR-RES ovarian = system: NCI/ADR-RES ovarian
SW-620 colon = system: SW-620 colon
HL-60(TB) leukemia = system: HL-60(TB) leukemia
SF-539 CNS = system: SF-539 CNS

CC(C(=O)ON1C(=O)CCC1=O)c1ccc(C(=O)c2ccccc2)s1 (centres undefined)
TGI (SNB-75 CNS): > 100 µM
TGI (SK-OV-3 ovarian): > 100 µM
TGI (NCI-H226 lung): > 100 µM
TGI (M14 melanoma): > 100 µM
TGI (OVCAR-4 ovarian): > 100 µM
TGI (U251 CNS): > 100 µM
TGI (SR leukemia): > 100 µM
TGI (T-47D breast): > 100 µM
TGI (IGROV1 ovarian): > 100 µM
TGI (KM12 colon): > 100 µM
TGI (HOP-62 NSCLC): > 100 µM
TGI (OVCAR-8 ovarian): > 100 µM
TGI (786-0 renal): > 100 µM
TGI (MOLT-4 leukemia): > 100 µM
TGI (RPMI-8226 leukemia): > 100 µM
TGI (SF-295 CNS): > 100 µM
TGI (HCT-15 colon): > 100 µM
TGI (NCI-H522 lung): > 100 µM
TGI (EKVX NSCLC): > 100 µM
TGI (DU-145 prostate): > 100 µM
TGI (NCI-H460 lung): > 100 µM
TGI (SK-MEL-28 melanoma): > 100 µM
TGI (BT-549 breast): > 100 µM
TGI (MALME-3M melanoma): > 100 µM
TGI (HCT-116 colon): > 100 µM
TGI (SNB-19 CNS): > 100 µM
TGI (SF-268 CNS): > 100 µM
TGI (CAKI-1 renal): > 100 µM
TGI (MCF7 breast): > 100 µM
TGI (PC-3 prostate): > 100 µM
TGI (MDA-MB-231 breast): > 100 µM
TGI (MDA-N): > 100 µM
TGI (COLO 205 colon): > 100 µM
TGI (A549 NSCLC): > 100 µM
TGI (HT29 colon): > 100 µM
TGI (CCRF-CEM leukemia): > 100 µM
TGI (NCI-H23 lung): > 100 µM
TGI (ACHN renal): > 100 µM
TGI (RXF 393 renal): > 100 µM
TGI (K-562 leukemia): > 100 µM
TGI (SK-MEL-5 melanoma): > 100 µM
TGI (LOX IMVI melanoma): > 100 µM
TGI (HS 578T breast): > 100 µM
TGI (MDA-MB-435): > 100 µM
TGI (HCC-2998 colon): > 100 µM
TGI (UACC-257 melanoma): > 100 µM
TGI (OVCAR-3 ovarian): > 100 µM
TGI (SN12C renal): > 100 µM
TGI (OVCAR-5 ovarian): > 100 µM
TGI (SK-MEL-2 melanoma): > 100 µM
TGI (UO-31 renal): > 100 µM
TGI (A498 renal): > 100 µM
TGI (UACC-62 melanoma): > 100 µM
TGI (HOP-92 NSCLC): > 100 µM
TGI (TK-10 renal): > 100 µM
TGI (NCI/ADR-RES ovarian): > 100 µM
TGI (SW-620 colon): > 100 µM

Clc1nc(Cl)c(Cl)c(Cl)n1
TGI (SNB-75 CNS): 33.8 µM
TGI (SK-OV-3 ovarian): 30.3 µM
TGI (NCI-H226 lung): 42.8 µM
TGI (M14 melanoma): 34.4 µM
TGI (OVCAR-4 ovarian): 46.8 µM
TGI (U251 CNS): 36.1 µM
TGI (SR leukemia): 14.6 µM
TGI (T-47D breast): 41 µM
TGI (IGROV1 ovarian): 38.7 µM
TGI (KM12 colon): 28.9 µM
TGI (HOP-62 NSCLC): 35.7 µM
TGI (HL-60(TB) leukemia): 33.1 µM
TGI (OVCAR-8 ovarian): 80.2 µM
TGI (786-0 renal): 41.4 µM
TGI (MOLT-4 leukemia): 15.5 µM
TGI (RPMI-8226 leukemia): > 100 µM
TGI (SF-295 CNS): 36.9 µM
TGI (HCT-15 colon): 38.1 µM
TGI (NCI-H522 lung): 35 µM
TGI (EKVX NSCLC): 94.4 µM
TGI (DU-145 prostate): 31.7 µM
TGI (NCI-H460 lung): 51.9 µM
TGI (SK-MEL-28 melanoma): 41.3 µM
TGI (BT-549 breast): 42.4 µM
TGI (MALME-3M melanoma): 35.9 µM
TGI (HCT-116 colon): 38.2 µM
TGI (SNB-19 CNS): 38.8 µM
TGI (SF-268 CNS): 56.9 µM
TGI (CAKI-1 renal): 35.6 µM
TGI (MCF7 breast): 37.9 µM
TGI (PC-3 prostate): 34.4 µM
TGI (MDA-MB-231 breast): 41.3 µM
TGI (MDA-N): 37.9 µM
TGI (COLO 205 colon): 24.1 µM
TGI (A549 NSCLC): 40.5 µM
TGI (HT29 colon): 52.6 µM
TGI (CCRF-CEM leukemia): 15.2 µM
TGI (NCI-H23 lung): 40.3 µM
TGI (ACHN renal): 26 µM
TGI (RXF 393 renal): 35 µM
TGI (K-562 leukemia): 28 µM
TGI (SK-MEL-5 melanoma): 32.2 µM
TGI (LOX IMVI melanoma): 27.3 µM
TGI (HS 578T breast): 53.7 µM
TGI (MDA-MB-435): > 61 µM
TGI (SF-539 CNS): 47.9 µM
TGI (HCC-2998 colon): 35.5 µM
TGI (UACC-257 melanoma): 31.1 µM
TGI (OVCAR-3 ovarian): 31.7 µM
TGI (SN12C renal): 42.7 µM
TGI (OVCAR-5 ovarian): 43.1 µM
TGI (UO-31 renal): 46.4 µM
TGI (A498 renal): 34.6 µM
TGI (UACC-62 melanoma): 35.7 µM
TGI (HOP-92 NSCLC): 56.4 µM
TGI (TK-10 renal): 37.3 µM
TGI (NCI/ADR-RES ovarian): 59.4 µM
TGI (SW-620 colon): 20.1 µM

c1ccc(-c2sc(-c3cccs3)cc2Cc2cccs2)cc1
TGI (SNB-75 CNS): > 10 µM
TGI (SK-OV-3 ovarian): > 10 µM
TGI (NCI-H226 lung): > 10 µM
TGI (M14 melanoma): > 10 µM
TGI (OVCAR-4 ovarian): > 10 µM
TGI (SR leukemia): > 10 µM
TGI (T-47D breast): > 10 µM
TGI (IGROV1 ovarian): > 10 µM
TGI (KM12 colon): > 10 µM
TGI (HOP-62 NSCLC): > 10 µM
TGI (HL-60(TB) leukemia): > 10 µM
TGI (OVCAR-8 ovarian): > 10 µM
TGI (786-0 renal): > 10 µM
TGI (MOLT-4 leukemia): > 10 µM
TGI (RPMI-8226 leukemia): > 10 µM
TGI (SF-295 CNS): > 10 µM
TGI (HCT-15 colon): > 10 µM
TGI (NCI-H522 lung): > 10 µM
TGI (EKVX NSCLC): > 10 µM
TGI (DU-145 prostate): > 10 µM
TGI (NCI-H460 lung): > 10 µM
TGI (SK-MEL-28 melanoma): > 10 µM
TGI (BT-549 breast): > 10 µM
TGI (MALME-3M melanoma): > 10 µM
TGI (HCT-116 colon): > 10 µM
TGI (SNB-19 CNS): > 10 µM
TGI (SF-268 CNS): > 10 µM
TGI (CAKI-1 renal): > 10 µM
TGI (MCF7 breast): > 10 µM
TGI (PC-3 prostate): > 10 µM
TGI (MDA-MB-231 breast): > 10 µM
TGI (MDA-N): > 10 µM
TGI (COLO 205 colon): > 10 µM
TGI (A549 NSCLC): > 10 µM
TGI (HT29 colon): > 10 µM
TGI (CCRF-CEM leukemia): > 10 µM
TGI (NCI-H23 lung): > 10 µM
TGI (ACHN renal): > 10 µM
TGI (RXF 393 renal): > 10 µM
TGI (K-562 leukemia): > 10 µM
TGI (SK-MEL-5 melanoma): > 10 µM
TGI (LOX IMVI melanoma): > 10 µM
TGI (HS 578T breast): > 10 µM
TGI (MDA-MB-435): > 10 µM
TGI (SF-539 CNS): > 10 µM
TGI (HCC-2998 colon): > 10 µM
TGI (UACC-257 melanoma): > 10 µM
TGI (SN12C renal): > 10 µM
TGI (UO-31 renal): > 10 µM
TGI (UACC-62 melanoma): > 10 µM
TGI (HOP-92 NSCLC): > 10 µM
TGI (TK-10 renal): > 10 µM
TGI (NCI/ADR-RES ovarian): > 10 µM
TGI (SW-620 colon): > 10 µM
